Experimental data taken from the NIST ThermoML archive (doi:10.1016/j.fluid.2005.05.023).

Experiment: xn = mol fraction of the nth substance listed
Details: Liquid, Vibrating tube method

Cc1ccccc1 [toluene] + CCO
mass density [kg/m3]
Details	100 kPa	5000 kPa	10000 kPa	15000 kPa	20000 kPa	25000 kPa	30000 kPa	35000 kPa	40000 kPa	45000 kPa
283.15 K, x2 = 0	876.1	879.5	882.9	886.1	889.3	892.4	895.3	898.2	901	903.7
283.15 K, x2 = 0.125	870.4	873.9	877.4	880.7	883.8	886.9	889.9	892.8	895.6	898.4
283.15 K, x2 = 0.25	864.3	867.9	871.3	874.6	877.9	881	884	886.9	889.7	892.5
283.15 K, x2 = 0.375	857.5	861.1	864.6	867.9	871.2	874.3	877.3	880.3	883.1	885.9
283.15 K, x2 = 0.5	849.5	853.2	856.7	860.1	863.4	866.5	869.6	872.5	875.4	878.2
283.15 K, x2 = 0.625	840.2	843.9	847.5	850.9	854.2	857.4	860.5	863.5	866.4	869.2
283.15 K, x2 = 0.75	829.2	832.9	836.5	840	843.4	846.6	849.7	852.8	855.7	858.6
283.15 K, x2 = 0.875	815.4	819.2	823	826.5	829.9	833.2	836.4	839.5	842.5	845.4
293.15 K, x2 = 0	866.8	870.5	874.1	877.5	880.8	884	887.1	890.1	893	895.9
293.15 K, x2 = 0.125	861	864.7	868.3	871.8	875.1	878.4	881.5	884.6	887.5	890.4
293.15 K, x2 = 0.25	854.9	858.6	862.3	865.8	869.2	872.5	875.6	878.7	881.7	884.5
293.15 K, x2 = 0.375	848.1	851.8	855.5	859.1	862.5	865.8	869	872.1	875.1	878
293.15 K, x2 = 0.5	840.3	844	847.8	851.4	854.8	858.1	861.4	864.5	867.5	870.4
293.15 K, x2 = 0.625	831.1	834.9	838.7	842.3	845.8	849.2	852.4	855.5	858.6	861.5
293.15 K, x2 = 0.75	820.2	824.1	827.9	831.6	835.1	838.5	841.8	845	848	851
293.15 K, x2 = 0.875	806.6	810.6	814.5	818.3	821.9	825.4	828.7	831.9	835	838
303.15 K, x2 = 0	857.5	861.4	865.2	868.8	872.3	875.7	879	882.1	885.2	888.1
303.15 K, x2 = 0.125	851.4	855.4	859.2	862.9	866.4	869.9	873.2	876.4	879.4	882.5
303.15 K, x2 = 0.25	845.3	849.3	853.2	856.9	860.5	863.9	867.3	870.4	873.6	876.6
303.15 K, x2 = 0.375	838.5	842.6	846.5	850.3	853.9	857.3	860.7	863.9	867.1	870.1
303.15 K, x2 = 0.5	830.8	834.8	838.8	842.6	846.2	849.7	853.1	856.4	859.5	862.6
303.15 K, x2 = 0.625	821.7	825.8	829.8	833.7	837.3	840.9	844.3	847.6	850.7	853.8
303.15 K, x2 = 0.75	810.9	815.1	819.2	823.1	826.8	830.4	833.8	837.1	840.3	843.4
303.15 K, x2 = 0.875	797.6	801.9	806.1	810	813.8	817.4	820.9	824.3	827.5	830.6
313.15 K, x2 = 0	848.1	852.2	856.2	860	863.7	867.3	870.7	874	877.2	880.3
313.15 K, x2 = 0.125	841.8	845.9	850	853.9	857.7	861.3	864.7	868.1	871.3	874.5
313.15 K, x2 = 0.25	835.6	839.8	844	847.9	851.7	855.3	858.8	862.2	865.4	868.6
313.15 K, x2 = 0.375	828.9	833.2	837.3	841.3	845.1	848.8	852.3	855.7	859	862.2
313.15 K, x2 = 0.5	821.2	825.5	829.7	833.7	837.5	841.2	844.8	848.2	851.5	854.7
313.15 K, x2 = 0.625	812.2	816.5	820.8	824.8	828.7	832.5	836	839.4	842.8	846
313.15 K, x2 = 0.75	801.6	806	810.3	814.4	818.3	822.1	825.7	829.2	832.5	835.8
313.15 K, x2 = 0.875	788.6	793.1	797.5	801.6	805.6	809.4	813.1	816.6	819.9	823.2
323.15 K, x2 = 0	838.6	843	847.2	851.3	855.2	858.9	862.5	866	869.4	872.6
323.15 K, x2 = 0.125	832.1	836.5	840.8	845	848.9	852.7	856.3	859.9	863.3	866.5
323.15 K, x2 = 0.25	825.8	830.3	834.7	838.9	842.9	846.7	850.4	853.9	857.3	860.6
323.15 K, x2 = 0.375	819.1	823.6	828	832.3	836.3	840.2	843.8	847.4	850.9	854.2
323.15 K, x2 = 0.5	811.3	815.9	820.4	824.7	828.8	832.6	836.4	840	843.4	846.7
323.15 K, x2 = 0.625	802.5	807.1	811.6	815.9	820	824	827.7	831.3	834.8	838.1
323.15 K, x2 = 0.75	792.1	796.8	801.3	805.7	809.8	813.8	817.5	821.2	824.7	828.1
323.15 K, x2 = 0.875	779.3	784.1	788.7	793.1	797.3	801.3	805.1	808.8	812.3	815.7
333.15 K, x2 = 0	828.8	833.5	838	842.3	846.4	850.4	854.2	857.9	861.4	864.8
333.15 K, x2 = 0.125	822	826.7	831.4	835.8	839.9	843.9	847.8	851.5	855.1	858.5
333.15 K, x2 = 0.25	815.6	820.4	825.1	829.5	833.7	837.8	841.7	845.4	849	852.5
333.15 K, x2 = 0.375	808.8	813.6	818.4	822.9	827.1	831.2	835.1	838.9	842.5	846
333.15 K, x2 = 0.5	801.2	806.1	810.8	815.4	819.7	823.8	827.7	831.5	835.1	838.6
333.15 K, x2 = 0.625	792.3	797.2	802.1	806.7	811	815.2	819.1	822.9	826.6	830.1
333.15 K, x2 = 0.75	782	787	791.9	796.5	800.9	805.1	809.1	812.9	816.6	820.1
333.15 K, x2 = 0.875	769.5	774.6	779.5	784.2	788.7	792.9	796.9	800.7	804.4	808
343.15 K, x2 = 0	819.2	824.1	829	833.5	837.9	842.1	846	849.9	853.5	857
343.15 K, x2 = 0.125	811.9	817	821.9	826.6	831.1	835.3	839.3	843.2	846.9	850.5
343.15 K, x2 = 0.25	805.3	810.5	815.5	820.3	824.8	829	833.1	837	840.8	844.4
343.15 K, x2 = 0.375	798.5	803.7	808.8	813.6	818.1	822.4	826.5	830.5	834.2	837.9
343.15 K, x2 = 0.5	790.7	796	801.1	806	810.6	814.9	819	823	826.8	830.5
343.15 K, x2 = 0.625	781.9	787.3	792.5	797.4	802	806.3	810.5	814.5	818.3	822
343.15 K, x2 = 0.75	771.8	777.2	782.5	787.4	792	796.4	800.6	804.6	808.5	812.2
343.15 K, x2 = 0.875	759.6	765	770.3	775.3	780	784.4	788.6	792.7	796.5	800.2
353.15 K, x2 = 0	809.4	814.7	819.9	824.7	829.3	833.7	837.9	841.9	845.7	849.4
353.15 K, x2 = 0.125	801.7	807.2	812.5	817.4	822.2	826.7	830.9	835	838.9	842.7
353.15 K, x2 = 0.25	–	800.4	805.8	810.9	815.6	820.2	824.5	828.6	832.6	836.4
353.15 K, x2 = 0.375	–	793.4	798.9	804	808.8	813.4	817.8	821.9	825.9	829.7
353.15 K, x2 = 0.5	–	785.7	791.3	796.4	801.3	805.9	810.3	814.5	818.5	822.3
353.15 K, x2 = 0.625	–	777	782.6	787.9	792.8	797.4	801.8	806	810	813.9
353.15 K, x2 = 0.75	–	767.1	772.7	778	782.9	787.6	792	796.3	800.3	804.2
353.15 K, x2 = 0.875	–	755.1	760.8	766.1	771.1	775.8	780.3	784.5	788.6	792.4
